In US20140249143A1, “Compounds And Methods For Enhancing Innate Immune Responses” (GlaxoSmithKline LLC, priority 2011, published 2014):

How the values were obtained:
[1] = system: HCV genotype 1a subgenomic replicon; assay: Anti-Hepatitis C replicon assay, genotype 1a (luciferase); type: cell-based; settings: Hepatitis C virus; luciferase activity measured 48 hours later; read-out: HCV Genotype 1A Replicon pEC50 (converted)
Protocol: (§1) Compounds were assayed for activity against HCV using the genotype 1a and 1b subgenomic replicon model systems. Stable cell lines bearing the genotype 1a and 1b replicons were used for screening of compounds. Both replicons are bicistonic and contain the firefly luciferase gene. The ET cell line is stably transfected with RNA transcripts harboring a I389luc-ubi-neo/NS3-3′/ET replicon with firefly luciferase-ubiquitin-neomycin phosphotransferase fusion protein and EMCV-IRES driven NS3-5B polyprotein containing the cell culture adaptive mutations (E1202G; T1280I; K1846T) (Krieger at al, 2001 and unpublished). The genotype 1a replicon is a stable cell line licensed from Apath LLC, modified to contain the firefly luciferase gene. The cells were grown in DMEM, supplemented with 10% fetal calf serum, 2 mM Glutamine, Penicillin (100 IU/mL)/Streptomycin (100 μg/mL), 1× nonessential amino acids, and 250-500 μg/mL G418 (“Geneticin”). They were all available through Life Technologies (Bethesda, Md.). The cells were plated at 0.5×10^4 cells/well in 384 well plates containing compounds. The final concentration of compounds ranged between 0.03 pM to 50 μm and the final DMSO concentration of 0.5-1%.
(§2) Luciferase activity was measured 48 hours later by adding a Steady glo (Promega, Madison, Wis.). Percent inhibition of replication data was plotted relative to no compound control. Under the same condition, cytotoxicity of the compounds was determined using cell titer glo (Promega, Madison, Wis.). IC50s were determined from a 10 point dose response curve using 3-4-fold serial dilution for each compound, which spans a concentration range>1000 fold. BioAssay determines the level of inhibition for each compound by normalizing cross-talk corrected plate values against the negative (low or background, cells with no compound present) and positive (high DMSO, no cells) controls to determine Percent Inhibition:
(§3) These normalized values are exported to IC50 where they are plotted against the molar compound concentrations using the standard four parameter logistic equation: […]

[2] = system: HCV genotype 1b subgenomic replicon; assay: Anti-Hepatitis C replicon assay, genotype 1b (luciferase); type: cell-based; settings: Hepatitis C virus; luciferase activity measured 48 hours later; read-out: HCV Genotype 1B Replicon pEC50 (converted)
Protocol: as §1, §2, §3

[3] = system: ISG56 (Interferon-Stimulated Gene 56) promoter ISRE; assay: ISG56 luciferase reporter assay in HEK 293 cells; type: cell-based; settings: Homo sapiens, HEK293; HEK 293 reporter, 24 hours; 100% = small molecule control test compound; read-out: ISG56 (Average Max Response) %
Protocol: Compounds of the present invention were tested against a HEK (Human Embryonic Kidney) 293 cell line that was stably transfected with a firefly luciferase reporter gene under the control of the ISG56 (Interferon-Stimulated Gene 56) promoter ISRE (Interferon-Stimulated Response Element). While the ISRE is in the opposite orientation of the wild type promoter, literature^1 cites that the response elements are pallindromic and function properly in either orientation. ^1Reich, N., Evans, B., Levy, D., Fahey, D., Knight, E., Damell, J. E. (1987) Interferon-induced transcription of a gene encoding a 15-kDa protein depends on an upstream enhancer element. See, Proc. Natl. Acad. Sci. 84, (6394-6398).
In preparation for the assay, test compounds were serially diluted 3-fold in DMSO from a typical top concentration of 5 mM and plated at 0.2 μL in a 384-well, polystyrene, tissue culture treated plate with lid (Greiner Bio-One North America, Inc., Monroe, N.C.) to generate 11-point dose response curves in the assay. Low control wells (0% response) contained 0.2 μL of DMSO alone, and high control wells (100% response) contained 0.2 μL of a small molecule control test compound.
Frozen stocks of the transfected HEK 293 cells were washed and recovered in DMEM I Ham's F-12 media (Invitrogen Corporation, Carlsbad, Calif.) supplemented with 10% v/v qualified Australian fetal bovine serum (FBS) (Invitrogen Corporation, Carlsbad, Calif.), 1× GlutaMAX™ (Invitrogen Corporation, Carlsbad, Calif.), 1×MEM non-essential amino acids (NEAA) (Invitrogen Corporation, Carlsbad, Calif.) and 500 μg/ml Geneticin® (Invitrogen Corporation, Carlsbad, Calif.). The cells were diluted to 500,000 cells/mL in the supplemented DMEM/Ham's F-12 media, and 20 μL of the cell suspension were added to each well of the previously prepared 384-well compound plate, resulting in 10,000 cells/well. The plate, with lid, were placed in a 37° C., 5% CO2 humidified incubator for 24 hours.
Following incubation, the plates were removed and placed on the bench top without lids to equilibrate to room temperature for 30 minutes. Steady-Glo® (Promega Corporation, Madison, Wis.) was prepared according to the manufacturer's instructions, and 10 μL were added to each plate well. After a twenty minute incubation at room temperature, luminescence was read on a ViewLux™ (PerkinElmer Inc., Waltham, Mass.).
The data for dose responses were plotted as % activation versus compound concentration following normalization using the formula 100*((U−C1)/(C2−C1)), where U was the unknown value, C1 was the average of the low (0% response) control wells and C2 was the average of the high (100% response) control wells. Curve fitting was performed with the equation y=A+((B−A)/(1+(10^x/10^C)^D)), where A was the minimum response, B was the maximum response, C was the log(EC50) and D was the Hill slope. The results for each test compound were recorded as pEC50 values (—C in the above equation) and as max response values at a given concentration.

ISGs and cytokines mRNA = assay: Dose response of ISG induction in vivo; design: species or system CD-1 mice; settings: 0, 200, 600, 1000 mg/kg oral gavage, 24 h, blood and tissues
Protocol: Naive male CD-1 mice were obtained from Charles Rivers Laboratories (Wilmington, Mass.) and administered with Example 11 in a dose response (0, 200, 600, and 1000 mg/kg; three mice per dose group) by oral gavage. The dose of 200 mg/kg was in 0.5% HPMC/0.1% Tween 80 whereas the rest of doses were in 30% solutol/70% PEG400. At 24 h, the blood and tissues were collected and processed as described above. The gene expressions of various ISGs and cytokines were monitored by real time RT-PCR (see above for the details).

[4] = system: reconstructed human epidermis (RHE) keratinocytes; assay: JAK/STAT induction in reconstructed human epidermis (western blot, real-time PCR); type: cell-based; settings: 10 μM (IFN-alpha 100 U/mL), 6 and 72 hrs
Protocol: First, reconstructed human epidermis (“RHE”) consisting of cultured human keratinocyte cells were incubated in triplicate with media containing either the media alone, media+0.1% DMSO, media containing 10 μM of several putative JAK/STAT activator compounds described herein in Tables 1 and 2 (Example 1, Example 2, Example 11, and compound no. 89 (as a negative control)), or media containing 100 U/mL of a positive control Interferon-alpha (IFN-alpha) recombinant protein at 37° C. in a humidified atmosphere containing 5% CO2, for 6 and 72 hours.
At the end of the incubation period, the RHE tissues were cut into two sections. One section was ¼ of the total size and the second section was […].

JAK/STAT = JAK/STAT activator assay; type: cell-based
STAT1 phosphorylation = STAT1 phosphorylation immunoblot in HCV replicon cells; type: cell-based; settings: IFNα 100 U/ml
Protocol: (§4) IFNα (100 U/ml) and DMSO were included as controls. The total cell lysates were analyzed on a 4-20% SDS-PAGE gradient gel and followed by immunoblotting using anti-phopho STAT1 antibody (Cell Signaling). The level of actin was monitored as a loading control. The bands were visualized by the alkaline phosphatase activity conjugated with the secondary antibody (Promega) using ProtoBlot II AP System™ (Promega).

[5] = system: interferon stimulated genes (ISGs); assay: Expression of interferon stimulated genes in HCV replicon cells (real time RT-PCR); type: cell-based; settings: Example 1 2 μM, IFNα 100 U/ml
Source text: The up-regulation of interferon stimulated genes upon treatment with Example 1 was monitored by quantitative real time RT-PCR using specific primers for each gene, as shown in FIG. 3. […] Total RNA was isolated using RNeasy 96 kit (Qiagen) and converted to cDNA using High Capacity cDNA reverse transcription kit (Applied Biosystems). For real time PCR, the cDNA was used for PCR reactions using TaqMan Fast Universal PCR master mix (Applied Biosystems) and specific primers (Applied Biosystems). As housekeeping genes, actin and GAPDH were used for normalization. Data was calculated by the ΔΔCt method and fold change determined compared to DMSO-treated control samples.

human JAK1 = biological target: T1, human JAK1 (Homo sapiens, UniProt P23458); assay: JAK1 reconstitution in U4A and 2fGH cells (phosphor-STAT1 western blot, Taqman mRNA); type: cell-based; settings: Example 1 10 μM, IFNα 100 U/ml
T1 construct: expressed in transfected cells; host or cells: U4A cells (JAK1-deficient derivative of the human fibroblast line 2fGH), transduced with a baculovirus mammalian expression system
Protocol: 2fGH and U4A cells were obtained from the Cleveland Clinic. 2fGH is a human fibroblast cell line and U4A cell line is a derivative 2fGH harboring a defect in JAK1 expression (Muller, et al., Nature 366, 129-135 (1993)). Green fluoroscent protein (GFP) or human JAK1 was transduced in U4A cells by baculovirus mammalian expression system. After 24 hours post transduction, the cells were treated with DMSO, Example 1 (10 μM), IFNα (100 U/ml), IFNβ (100 U/ml), or IFNγ (100 U/ml). Untransduced U4A cells and 2fGH cells were included as controls for 6 or 18 hours. The cells were harvested at indicated time points and used for detecting phosphor-STAT1 by western blot (FIG. 10, panel A) or for mRNA analysis by Taqman quantitation (FIG. 10, panel B).
as §4, with “The” for “IFNα (100 U/ml) and DMSO were included as controls. The”, “system” for “System™”
Gene expression was measured using TaqMan Fast Universal PCR Master Mix (Applied Biosystems) and gene specific probes and murine primers in HT7900 FAST System (Invitrogen). As housekeeping genes, actin and GAPDH were used for normalization. Data was calculated by the ΔΔCt method and fold change determined compared to non-treated control samples.

[6] = system: respiratory syncytial virus (RSV); assay: RSV plaque assay on HEp-2 cells; type: cell-based; settings: 1000 U/ml
Protocol: A broad spectrum of antiviral activity of Example 1 was accessed by testing it for potency against other viruses. (See FIG. 8). […] RSV (long form) was inoculated on the layer of HEp-2 cells at multiplicity of infection of <0.001. After 4 hour post infection, the inoculum was replaced with 0.3% agarose containing MEM and various concentration of Example 1 or IFNα. The cells were incubated for up to 5-6 days until the plaques were visible. The cells were then fixed with 3% formaldehyde and stained with neutral red for visualization.

T1 sequence (P23458 whole entry): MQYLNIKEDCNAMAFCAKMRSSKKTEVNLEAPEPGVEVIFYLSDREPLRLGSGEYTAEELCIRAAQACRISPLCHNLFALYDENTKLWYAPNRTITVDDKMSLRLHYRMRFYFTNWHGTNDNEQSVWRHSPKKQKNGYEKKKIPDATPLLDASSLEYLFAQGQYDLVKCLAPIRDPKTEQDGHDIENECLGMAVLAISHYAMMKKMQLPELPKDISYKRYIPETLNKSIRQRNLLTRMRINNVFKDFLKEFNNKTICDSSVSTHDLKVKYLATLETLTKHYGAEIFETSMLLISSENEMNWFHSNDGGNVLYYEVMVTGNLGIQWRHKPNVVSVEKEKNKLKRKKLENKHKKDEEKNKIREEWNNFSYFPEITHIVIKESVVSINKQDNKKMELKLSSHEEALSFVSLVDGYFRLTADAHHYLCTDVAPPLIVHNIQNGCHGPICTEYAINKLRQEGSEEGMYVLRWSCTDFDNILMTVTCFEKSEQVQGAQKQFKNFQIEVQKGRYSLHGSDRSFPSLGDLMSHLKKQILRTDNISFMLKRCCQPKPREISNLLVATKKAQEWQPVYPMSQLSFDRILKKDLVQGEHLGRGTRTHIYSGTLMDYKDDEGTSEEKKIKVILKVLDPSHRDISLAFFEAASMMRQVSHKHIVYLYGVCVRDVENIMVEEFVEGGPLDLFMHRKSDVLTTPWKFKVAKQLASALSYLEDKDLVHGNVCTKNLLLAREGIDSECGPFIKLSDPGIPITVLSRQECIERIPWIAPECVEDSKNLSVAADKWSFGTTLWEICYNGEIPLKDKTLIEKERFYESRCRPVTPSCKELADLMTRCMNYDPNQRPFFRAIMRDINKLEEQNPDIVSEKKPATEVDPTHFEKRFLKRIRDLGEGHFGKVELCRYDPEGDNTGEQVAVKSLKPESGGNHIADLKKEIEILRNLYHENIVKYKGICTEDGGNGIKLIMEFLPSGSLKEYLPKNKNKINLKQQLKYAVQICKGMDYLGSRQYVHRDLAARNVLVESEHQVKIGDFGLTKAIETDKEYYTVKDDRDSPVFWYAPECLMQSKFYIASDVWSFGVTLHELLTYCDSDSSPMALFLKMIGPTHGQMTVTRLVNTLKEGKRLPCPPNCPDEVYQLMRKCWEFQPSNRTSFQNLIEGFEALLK

Question: `FC(F)(F)c1nc(C(F)(F)F)c2ccc3nc(-c4nnco4)cn3c2n1` [Compound 11, 4-(1,3,4-oxadiazol-2-yl)-10,12-bis(trifluoromethyl)-2,5,11,13-tetraazatricyclo[7.4.0.0^2,^6]trideca-1(9),3,5,7,10,12-hexaene] was tested. Which EC50 [1] did it give?
Answer: 251 nM

Question: What about the EC50 [2] of the same molecule?
Answer: 794 nM

Question: And the Emax [3]?
Answer: 293%

Question: And the “induction of ISG in dose response” value (ISGs and cytokines mRNA)?
Answer: correlated with given doses in all tissues

Question: And the “Stat1 phosphorylation (western blot)” value [4]?
Answer: Stat1 phosphorylation

Question: Which “Stat1 phosphorylation (western blot)” value [4] does the source give for `FC(F)(F)c1cc(C(F)(F)F)c2ccc3nc(-c4nncs4)cn3c2n1` [Compound 89] here?
Answer: did not show phosphorylation of Stat1

Question: What about the “result in the JAK/STAT activator assay” value (JAK/STAT) of the same molecule?
Answer: negative

Question: How did the STAT1 phosphorylation (STAT1 phosphorylation; Example 1 2 uM, 1 h, 6 h, 24 h) turn out when IFNα was run?
Answer: induced STAT1 phosphorylation

Question: What about the “time at which phosphorylated STAT1 peaked” value (STAT1 phosphorylation) of the same molecule?
Answer: 1 h

Question: And the “time of maximum induction of ISGs” value [5]?
Answer: 4 h

Question: What about the “activation of STAT1 in U4A cells transduced with JAK1” value (human JAK1) of the same molecule?
Answer: activation of STAT1 was observed

Question: And the “p-STAT1 in U4A cells (JAK1 deficient) transduced with GFP” value (human JAK1)?
Answer: not present

Question: What about the RSV plaques [6] of the same molecule?
Answer: significantly reduced the number and size of the plaques

Question: And the “Stat1 phosphorylation (western blot)” value [4]?
Answer: Stat1 phosphorylation
